Reference: patent US5504105A, “Pharmaceutical compositions containing ipriflavone, process for the preparation thereof and relative therapeutic use” (priority 1990, dated 1996)

Columns and labels:
[1] = In-vivo bioavailability test: urinary excretion, capsules vs tablets, 8 healthy adult volunteers; set-up: species or system healthy adult volunteers (human); details: first study
Protocol: Concomitant drug treatment was avoided.
Urine was collected over the 24 hour period before treatment and on the tenth and eleventh days over the periods 0-24 hours and 24-48 hours after the assumption of the last dose. A homogenous sample (10 ml approx.) was prepared from the total urine excreted on the tenth and eleventh days; this sample was then stored at -20° C. until analised by HPLC.
The pharmacokinetic data were compared with those obtained administering an equivalent dose of ipriflavone in the standard formulation of 200 mg tablets three times daily (total dose 600 mg) according to an analogous study protocol.

[2] = cited from earlier work
[3] = Further comparative bioavailability study: urinary excretion, treatments A and B, twelve healthy volunteers; assay type: in vivo, young healthy volunteers (human); details: each treatment, second study
Protocol: (§1) In this comparative study all the conditions that could influence in some measure the bioavailability behaviour such as meals, drug administration or samples collection were strictly standardized.
(§2) The study was carried out in twelve young healthy volunteers in good health.
(§3) All the subjects were on a standard diet for all the period of the study.
(§4) For each treatment, after an overnight fast, each subject received at 8:00 a.m. on Day 1 the first oral dosing. From Day 1 to Day 10 the daily doses were administered during the meals. The two different treatments (A and B) were the following:
(§5) Treatment A: one 200 mg Ipriflavone Tablet 3 times daily at 8:00 a.m. , 1:00 p.m. and 8:00 p.m.;
(§6) Treatment B: one 300 mg Ipriflavone Scherer capsule two times daily at 8:00 a.m. and 8:00 p.m.

[4] = human, in vivo
Protocol: as §1, §2, §3, §4, §5, §6

[5] = in vivo; cited from earlier work

- unchanged ipriflavone in urine [1]: no detectable levels
- mean increment in bioavailability [4]: 35%
Compound: CC(C)Oc1ccc2c(=O)c(-c3ccccc3)coc2c1 [Ipriflavone]
- half-life ([2]; human, in vivo, po): 9.8 h
- peak plasma concentration of the unchanged drug ([2]; human, in vivo, po): 170 ng/mL
- time to peak plasma concentration after administration ([2]; human, in vivo, po): 1.3 h
- absorption and metabolism in man ([2]; oral, man): absorbed rapidly and, furtherly, extensively metabolised equally rapidly
- unchanged ipriflavone in urine [3]: no unchanged ipriflavone levels were found
- plasma levels / metabolization in man [4]: could not be quantified in several subjects
- effectiveness in osteoporosis [5]: effective in preventing and treating post-menopausal and senile osteoporosis
